Measurements published in PubChem BioAssay (NCI).
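Results reflect a 48-hour exposure of cells in 96-well plates to compound at five concentrations. The concentration for full growth arrest is given as TGI.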

Experiments:
Assay in all cases: growth of human tumour cells (NCI), 48 h
K-562 leukemia = tested on: K-562 leukemia
HT29 colon = tested on: HT29 colon
OVCAR-8 ovarian = tested on: OVCAR-8 ovarian
PC-3 prostate = tested on: PC-3 prostate
CAKI-1 renal = tested on: CAKI-1 renal
BT-549 breast = tested on: BT-549 breast
M14 melanoma = tested on: M14 melanoma
HL-60(TB) leukemia = tested on: HL-60(TB) leukemia
SK-MEL-28 melanoma = tested on: SK-MEL-28 melanoma
UACC-62 melanoma = tested on: UACC-62 melanoma
IGROV1 ovarian = tested on: IGROV1 ovarian
UO-31 renal = tested on: UO-31 renal
786-0 renal = tested on: 786-0 renal
U251 CNS = tested on: U251 CNS
LOX IMVI melanoma = tested on: LOX IMVI melanoma
HCT-15 colon = tested on: HCT-15 colon
KM12 colon = tested on: KM12 colon
NCI-H522 lung = tested on: NCI-H522 lung
MDA-MB-231 breast = tested on: MDA-MB-231 breast
OVCAR-5 ovarian = tested on: OVCAR-5 ovarian
MALME-3M melanoma = tested on: MALME-3M melanoma
MDA-N = tested on: MDA-N
SF-268 CNS = tested on: SF-268 CNS
SR leukemia = tested on: SR leukemia
ACHN renal = tested on: ACHN renal
NCI/ADR-RES ovarian = tested on: NCI/ADR-RES ovarian
SNB-19 CNS = tested on: SNB-19 CNS
MDA-MB-435 = tested on: MDA-MB-435
CCRF-CEM leukemia = tested on: CCRF-CEM leukemia
NCI-H23 lung = tested on: NCI-H23 lung
SF-539 CNS = tested on: SF-539 CNS
T-47D breast = tested on: T-47D breast
SW-620 colon = tested on: SW-620 colon
HS 578T breast = tested on: HS 578T breast
COLO 205 colon = tested on: COLO 205 colon
OVCAR-3 ovarian = tested on: OVCAR-3 ovarian
SN12C renal = tested on: SN12C renal
MOLT-4 leukemia = tested on: MOLT-4 leukemia
NCI-H226 lung = tested on: NCI-H226 lung
A549 NSCLC = tested on: A549 NSCLC
RPMI-8226 leukemia = tested on: RPMI-8226 leukemia
OVCAR-4 ovarian = tested on: OVCAR-4 ovarian
A498 renal = tested on: A498 renal
TK-10 renal = tested on: TK-10 renal
NCI-H460 lung = tested on: NCI-H460 lung
EKVX NSCLC = tested on: EKVX NSCLC
SF-295 CNS = tested on: SF-295 CNS
SK-OV-3 ovarian = tested on: SK-OV-3 ovarian
HOP-62 NSCLC = tested on: HOP-62 NSCLC
SK-MEL-5 melanoma = tested on: SK-MEL-5 melanoma
UACC-257 melanoma = tested on: UACC-257 melanoma
SK-MEL-2 melanoma = tested on: SK-MEL-2 melanoma
HOP-92 NSCLC = tested on: HOP-92 NSCLC
RXF 393 renal = tested on: RXF 393 renal
HCT-116 colon = tested on: HCT-116 colon
DU-145 prostate = tested on: DU-145 prostate
MCF7 breast = tested on: MCF7 breast

CN(/N=C/c1ccccc1O)c1ccc2ccccc2n1
TGI (K-562 leukemia): > 100 µM
TGI (HT29 colon): 90.1 µM
TGI (OVCAR-8 ovarian): > 100 µM
TGI (PC-3 prostate): 34.3 µM
TGI (CAKI-1 renal): > 100 µM
TGI (BT-549 breast): 61.1 µM
TGI (M14 melanoma): > 100 µM
TGI (HL-60(TB) leukemia): > 100 µM
TGI (SK-MEL-28 melanoma): > 100 µM
TGI (UACC-62 melanoma): > 100 µM
TGI (IGROV1 ovarian): 42.5 µM
TGI (UO-31 renal): 35.2 µM
TGI (786-0 renal): 31.5 µM
TGI (U251 CNS): 29.8 µM
TGI (LOX IMVI melanoma): > 100 µM
TGI (HCT-15 colon): > 100 µM
TGI (KM12 colon): 65.2 µM
TGI (NCI-H522 lung): 80.9 µM
TGI (MDA-MB-231 breast): > 100 µM
TGI (OVCAR-5 ovarian): > 100 µM
TGI (MALME-3M melanoma): 47.8 µM
TGI (MDA-N): > 100 µM
TGI (SF-268 CNS): 53.8 µM
TGI (SR leukemia): 36.8 µM
TGI (ACHN renal): 66.6 µM
TGI (NCI/ADR-RES ovarian): > 100 µM
TGI (SNB-19 CNS): 30.3 µM
TGI (MDA-MB-435): > 100 µM
TGI (CCRF-CEM leukemia): > 100 µM
TGI (NCI-H23 lung): 58.4 µM
TGI (SF-539 CNS): 37.1 µM
TGI (T-47D breast): 50.4 µM
TGI (SW-620 colon): > 100 µM
TGI (HS 578T breast): 72.8 µM
TGI (COLO 205 colon): > 100 µM
TGI (OVCAR-3 ovarian): 34.7 µM
TGI (SN12C renal): > 100 µM
TGI (MOLT-4 leukemia): 62.6 µM
TGI (NCI-H226 lung): > 100 µM
TGI (A549 NSCLC): 29.8 µM
TGI (RPMI-8226 leukemia): > 100 µM
TGI (OVCAR-4 ovarian): 67.7 µM
TGI (A498 renal): 38.8 µM
TGI (TK-10 renal): 44 µM
TGI (NCI-H460 lung): 55 µM
TGI (EKVX NSCLC): 54.9 µM
TGI (SF-295 CNS): 30.4 µM
TGI (SK-OV-3 ovarian): 29.8 µM
TGI (HOP-62 NSCLC): 29.9 µM
TGI (SK-MEL-5 melanoma): > 100 µM
TGI (UACC-257 melanoma): > 100 µM
TGI (SK-MEL-2 melanoma): > 100 µM
TGI (HOP-92 NSCLC): > 100 µM
TGI (RXF 393 renal): 90 µM
TGI (HCT-116 colon): > 100 µM
TGI (DU-145 prostate): 41.3 µM
TGI (MCF7 breast): 30.9 µM
